# Measured values reported in patent US6320024A, “Method for design of substances that enhance memory and improve the quality of life” (priority 1999, dated 2001).
# Ends that are not written are not given here. Peptide text beside a SMILES is read from it.
# Key:
# CD-1 male mice [1] = assay: Amnestic effect on retention of footshock active avoidance training (FAAT) in T-maze, well-trained mice, post-training ICV administration; type: in vivo; details: for amnestic effect on retention of FAAT: well-trained mice, post-training ICV, 6.14 nmol of peptide per mouse except dose-response curves, retention tested one week later; for molar amnestic efficacy / potency compared with another peptide: dose-response curves or FIG. 19
# Method: (§1) After 1 week in the laboratory, CD-1 male mice obtained from Charles River Breeding Laboratories were caged individually 24-28 hours prior to training and remained singly housed until retention was tested one week later. Animal rooms were on a 12 hour light/dark cycle with lights going on at the hour of 0600. Median body weight was 35 g, with a range of 33-38 g. Mice were assigned randomly to groups of 15 in the experiments reported in FIGS. 1-18 and groups of 10 for the dose-response curves (FIGS. 19 and 20) and were trained and tested between the hours of 0700 and 1500.
# With the exception of Val Phe and Phe Val from Sigma, all peptides used in these studies were synthesized and analyzed to establish purity by standard methods at the Beckman Research Institute. Peptides were dissolved in: (1) saline; (2) 8% vol/vol dimethyl sulfoxide: (3) glacial acetic acid neutralized with […]; or (4) NaOH neutralized with HCl.
# With exception of dose-response curves, the experiments reported below tested whether or not there was an amnestic: effect at 6.14 nmol of peptide per mouse.
# The T-maze used for footshock active avoidance training (FAAT) consisted of a black plastic alley (46 cm long) with a start box at one end and two goal boxes (17.5 cm long) at the other. The start box was separated from the alley by a plastic guillotine door that prevented movement down the alley until training began. The alley was 12.5 cm deep and 9.8 cm wide. An electrifiable stainless steel rod floor ran throughout the maze.
# Mice were not permitted to explore the maze before training. A block of training trials began when a mouse was placed in the start box. The guillotine door was raised and a muffled doorbell-type buzzer sounded simultaneously; footshock was 5 seconds later through a scrambled grid floor shocker (Colbourn Instruments, Model E13-08). The goal box first entered during the first set of trials was designated as "incorrect", and footshock was continued until the mouse entered the other goal box, which in all subsequent trials was designated "correct" for the particular mouse. At the end of each group of trials, the mouse was removed to its home cage.
# As training proceeded, a mouse made one of two types of responses. A response latency longer than 5 seconds was classed as an escape from the footshock. A response latency less than or equal to 5 seconds was considered an avoidance, since the mouse avoided receiving a footshock. Two exclusion criteria were applied to reduce learning variability among mice, as follows. On the first training trials, mice with escape latencies greater than 20 seconds were discarded. Mice not having at least one errorless escape latency between 1.5 and 3.5 seconds on training trials 3 or 4 were excluded. […] Mice received five such training trials. One week after training and post-trial administration of vehicle alone or vehicle containing test substance, T-maze training was resumed until each mouse made five avoidance responses in six consecutive training trials (trials to criterion). The recall score was taken to be the percentage of tested mice remembering original training.
# In these instances, training was performed under conditions that tend to maximize learning (sound intensity, 65 decibels; footshock current, 0.35 mA; intertrial interval, 45 seconds).
# CD-1 male mice [2] = assay: Memory-enhancing effect on retention of FAAT in T-maze, weakly trained mice (poor retention in vehicle controls), post-training ICV administration; type: in vivo
# Method: as §1
# With the exception of Val Phe and Phe Val from Sigma, all peptides used in these studies were synthesized and analyzed to establish purity by standard methods at the Beckman Research Institute. Peptides were dissolved in: (1) saline; (2) 8% vol/vol dimethyl sulfoxide: (3) glacial acetic acid neutralized with […]; or (4) NaOH neutralized with HCl. […] Analysis of variance showing insignificant differences among the latter, the value for the most frequently employed (No. 2 above) was used for comparison with groups receiving test peptides.
# The T-maze used for footshock active avoidance training (FAAT) consisted of a black plastic alley (46 cm long) with a start box at one end and two goal boxes (17.5 cm long) at the other. […]
# CD-1 male mice [3] = details: cited from earlier work; for amnestic effect on retention of FAAT (literature): post-training ICV in mice, references 1 and 12
# [4] = tested on: hippocampal neurons in culture; details: reference 17; cited from earlier work
compound,measurement,setting,value
KLVFFAE [Lys Leu Val Phe Phe Ala Glu],amnestic effect on retention of FAAT,CD-1 male mice [1],not amnestic
NC(=O)CC[C@H](N)C(=O)N[C@@H](Cc1ccccc1)C(=O)N[C@@H](Cc1ccccc1)C(=O)NCC(=O)O [Gln Phe Phe Gly] (H-QFFG-OH),amnestic effect on retention of FAAT,CD-1 male mice [1],amnestic
same,memory-enhancing potency compared with other peptides,CD-1 male mice [2]; poor retention in vehicle controls,by far the most potent
His Ser Asp Ala Val Phe Thr Asp Asn Tyr Thr Arg Leu Lys Gln Met Ala Val Lys Lys Tyr Leu Asn Ser Ile Leu Asn-NH2 (HSDAVFTDNYTRLKQMAVKKYLNSILN-NH2) [VIP],amnestic effect on retention of FAAT (literature),CD-1 male mice [3],amnestic
VFFAEDVGSNK [β-(18-28)],amnestic effect on retention of FAAT (literature),CD-1 male mice [3],amnestic
"β-(1-18): β-A4 fragment of reference 1, probably misprint of β-(1-28)",amnestic activity at lower dose (literature),"CD-1 male mice [3]; 1.5 nmol per mouse, reference 1",active
CC(C)[C@H](N)C(=O)N[C@@H](Cc1ccccc1)C(=O)N[C@@H](Cc1ccccc1)C(=O)O [Val Phe Phe] (H-Val-Phe-Phe-OH),molar amnestic efficacy / potency compared with another peptide,CD-1 male mice [1],not significantly different from that of the β-A4 homologue
same,amnestic effect on retention of FAAT,CD-1 male mice [1],amnestic
same,memory-enhancing effect,"CD-1 male mice [2]; weakly trained animals, ICV",memory enhancer
VFFAE [Val Phe Phe Ala Glu],molar amnestic efficacy / potency compared with another peptide,CD-1 male mice [1],lesser potency
same,amnestic effect on retention of FAAT,CD-1 male mice [1],amnestic
CC(C)[C@H](N)C(=O)N[C@@H](Cc1ccccc1)C(=O)N[C@H](C(=O)O)[C@@H](C)O [Val Phe Thr] (H-Val-Phe-Thr-OH),amnestic effect on retention of FAAT,CD-1 male mice [1],amnestic
Pro Arg Pro Gly Pro Gln Gln Phe Phe Gly Leu Met-NH2 (PRPGPQQFFGLM-NH2) [Substance Pro],effect on trophic and toxic effects of β-A4,[4],counteract trophic and toxic effects of β-A4
